Test results taken from patent publication US10077288B2, “Hydroxystatin derivatives for the treatment of arthrosis” (Merck Patent GmbH, priority 2012, dated 2018).
*1 amine or outer side, *2 acyl side, *3 side chain or, on linkers, in order; H or OH if unused. Where a SMILES comes first, the peptide text is derived from it. [ ]: non-standard residue; d: D form. The star is where a group is joined. Ahppa(3S,4S) = O=C(C[C@H](O)[C@H](Cc1ccccc1)N[*:1])[*:2]; Sta = CC(C)C[C@H](N)[C@@H](O)CC(=O)O; Isovaleryl = CC(C)CC(=O)*

How the values were obtained:
[1] = test system: bovine explants (cartilage degradation, liberation of GAG); conditions: pH 5.5, explant cultures (for example from mouse, cow or human); background statement; cited from earlier work
[2] = target: T1, cathepsin D isolated from the human liver (Homo sapiens, UniProt P07339); test: In-vitro fluorescence assay for identification of cathepsin D inhibitors; assay type: biochemical; conditions: human liver cathepsin D 1.4 nM, pH 5.5; read-out: CatD assay IC50-(M)
T1 construct: cathepsin D isolated from the human liver (Sigma-Aldrich); purchased Sigma-Aldrich; host or cells: human liver (tissue-derived, not recombinant)
Method in brief: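 Continuous FRET assay: human liver cathepsin D (1.4 nM final) preincubated 10 min at room temperature with serially diluted compound in 100 mM sodium acetate, 1.25% DMSO, 0.25% Chaps, pH 5.5. Started with 5 μM MCA-GKPILFFRLK(Dnp)d-R-NH2; fluorescence increase (ex 340/em 450 nm) over 60 min at room temperature compared with no-compound control.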

[3] = test system: rat knee joint inflammation (CAR-induced); test: Anti-hyperalgesic effect in animals: carrageenan-induced knee joint inflammation, Hargreaves test and swelling; assay type: in vivo; conditions: intra-articular administration 30 minutes before CAR; for CAR-induced swelling: rat knee joint
Procedure: EXAMPLE 6: INVESTIGATION OF THE ANTI-HYPERALGESIC EFFECT IN ANIMALS
In order to induce an inflammation reaction, a carrageenan solution […]) was injected intra-articularly on one side into a rat knee joint. The uninjected side was used for control purposes. Six animals per group were used. The […] was determined by means of a micrometer screw (medial-lateral on the knee joint), and the thermal hyperalgesia was determined by means of a directed infrared light source by the Hargreaves method (Hargreaves et al., 1988) on the sole of the foot. Since the site of inflammation (knee joint) is different from the site of measurement (paw sole), use is made here of the term secondary thermal hyperalgesia, the mechanism of which is of importance for the discovery of effective analgesics.
Experimental description of thermal hyperalgesia (Hargreaves test): the experimental animal is placed in a plastic chamber on a quartz sheet. Before testing, the experimental animal is firstly given about 5-15 minutes time to familiarise itself with the environment. As soon as the experimental animal no longer moves so frequently after the familiarisation phase (end of the exploration phase), the infrared light source, whose focus is in the plane of the glass bottom, is positioned directly beneath the rear paw to be stimulated. An experiment run is then started by pressing the button: infrared light results in an increase in the skin temperature of the rear paw. The experiment is terminated either by the experimental animal raising the rear paw (as an expression of the pain threshold being reached) or by automatic switching-off of the infrared light source when a prespecified maximum temperature has been reached. Light reflected by the paw is recorded as long as the experimental animal sits still. Withdrawal of the paw interrupts this reflection, after which the infrared light source is switched off and the time from switching on to switching off is recorded. […]

[4] = test system: bovine explants (cartilage degradation, liberation of GAG); test: Cartilage explant assay: pH-induced cartilage degradation, GAG release; assay type: cell-based; conditions: Bos taurus, 72 h, pH 5.5, 3 days
Text: EXAMPLE 5: CARTILAGE EXPLANT ASSAY
In order to investigate the effect of potential cathepsin D inhibitors on cartilage degradation, a pH-induced model based on bovine explants is used. The pH of the medium in which the explants are cultivated is matched here to the pathophysiological pH of an arthrotic knee. This pH is pH 5.5. In this ex vivo model, potential cathepsin D inhibitors are subsequently investigated for their action with respect to stopping of the cartilage degradation process. If the cartilage is destroyed, glycosaminoglycans (GAGs) are released into the cell culture supernatant. The amount of GAGs liberated can be determined quantitatively with the aid of DMMB (dimethylmethylene blue hydrochloride). If sulfated GAGs are detected using dimethylmethylene blue hydrochloride, the decrease in the absorption at 633 nm is utilised. […] In order to determine the concentration, a calibration line is also recorded using chondroitin sulfate.
1.) Procedure: pH-Induced Cartilage Degradation of Bovine Explants
The bovine explants are firstly prepared. The induction of the cartilage degradation is carried out in 96-multiwell plates. One explant is cultivated per well. In each case, 200 μl of DMEM (incubation medium pH 5.5) without FBS+30 μg/ml of ascorbic acid are added. Thus negative control, explants (n=4) are incubated at pH 7.4 (without FBS). This control is not included in the calculation of the data, but instead ensures that the pH change has the desired effect on the liberation of GAG. At this point, the substances to be tested are added. No pre-incubation of the explants is carried out. The explants are cultivated with the corresponding substances for 3 days in the incubator at 37° C. and 7.5% CO2.
In order to investigate the effect of cathepsin D inhibitors on the liberation of GAG (glycosaminoglycan), the substances are employed in the desired concentration and cultivated for 3 days. The compounds to be tested are tested in a first experiment in a concentration of 1 μM and 1% of DMSO. Substances which have an effect of >50% on the liberation of GAG (this corresponds to <50% of the control in the Assay Explorer) are tested in the next experiment at 100 nM and 1% of DMSO. Substances which have an effect of >50% on the liberation of GAG under these conditions (this corresponds to <50% of the control in the Assay Explorer) are tested in a concentration/effect relationship. The compounds here are investigated in the following concentrations: 30 μM, 10 μM, 3 μM, 1 μM, 0.3 μM, 0.1 μM, 0.03 μM, 0.01 μM.
The positive control used is pepstatin A with a concentration of 0.01 μM. The assay window is defined by the control (pH 5.5), defined as 0% effect, and the control pH 5.5+0.01 μM pepstatin A, defined as 100% effect. After incubation for 3 days, the cell culture supernatants are collected and stored at −20° C. or measured directly. The amount of liberated GAG is measured photometrically.
The effect (1 value) of the respective substance in % based on the positive control (pH 5.5+0.01 μM pepstatin A) and the negative control (pH 5.5) is reported for concentrations of 1 μM and 100 nM. The value represents the average of 4 replicants. In the determination of a concentration/effect relationship, an IC50 value is reported to the database (Assay Explorer).
The cell culture supernatants (200 μl) are either measured directly or stored at −20° C. […] A rapid colour reaction occurs, which is subsequently measured at 633 nm using a plate reader (for example Envision). […]

T1 sequence (P07339 65-161 limits assumed): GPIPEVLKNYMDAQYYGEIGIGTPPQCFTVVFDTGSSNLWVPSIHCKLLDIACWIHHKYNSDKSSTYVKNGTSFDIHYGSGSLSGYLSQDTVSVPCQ
T1 sequence (P07339 169-412 limits assumed): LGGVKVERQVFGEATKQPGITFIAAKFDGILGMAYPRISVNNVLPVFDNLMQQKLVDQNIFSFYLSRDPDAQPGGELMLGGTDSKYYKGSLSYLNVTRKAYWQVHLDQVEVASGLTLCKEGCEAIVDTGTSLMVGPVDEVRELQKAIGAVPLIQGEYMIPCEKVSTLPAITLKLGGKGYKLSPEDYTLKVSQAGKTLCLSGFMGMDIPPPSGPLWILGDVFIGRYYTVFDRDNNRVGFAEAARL

Row | Compound | IC50 [2] [M] | inhibition of autodigestion of the cartilage [1] | CAR-induced swelling [3] | IC50 [4] [nM] | other results
1 | CC(C)CC(=O)N[C@H](C(=O)N[C@H](C(=O)N[C@@H](CC(C)C)[C@@H](O)CC(=O)N[C@@H](C)C(=O)N[C@@H](CC(C)C)[C@@H](O)CC(=O)O)C(C)C)C(C)C [pepstatin] (Isovaleryl-VV[Sta]A[Sta]-OH) |  | inhibited virtually completely |  |  | 
2 | CC[C@H](C)[C@H](NC(=O)C[C@H](O)[C@H](Cc1ccccc1)NC(=O)[C@@H](NC(=O)c1cccc(-c2ccccc2)c1)C(C)C)C(=O)N[C@H](C(=O)OCc1ccccc1)C(C)C [Compound 23, benzly (S)-2-[(2S,3S)-2-((3S,4S)-4-{(S)-2-[(biphenyl-3-carbonyl)-amino]-3-methylbutyrylamino}-3-hydroxy-5-phenylpentanoylamino)-3-methylpentanoylamino]-3-methylbutyrate] | 1.2e-05 |  | exhibited no influence on inflammatory swelling |  | thermal hyperalgesia (anti-hyperalgesic action) ([3]; rat, Hargreaves method): exerts an anti-hyperalgesic action
3 | C[C@]12C=CC(=O)C=C1CC[C@H]1[C@@H]3C[C@@H](O)[C@](O)(C(=O)CO)[C@@]3(C)C[C@H](O)[C@@]12F [TAC, Triamcinolone, reference compound] |  |  | capable of reducing the CAR-induced swelling |  | 
4 | CC(C)c1nc(CN(C)C(=O)N[C@H](C(=O)N[C@@H](Cc2ccccc2)C[C@H](O)[C@H](Cc2ccccc2)NC(=O)OCc2cncs2)C(C)C)cs1 [ritonavir] |  | inhibited virtually completely |  |  | 

The next lines start with results.

Row | IC50 [2] [M] | Compound | inhibition of autodigestion of the cartilage [1] | CAR-induced swelling [3] | IC50 [4] [nM] | other results
5 | 3e-09 | CC[C@H](C)[C@H](NC(=O)C[C@H](O)[C@H](Cc1ccccc1)NC(=O)[C@@H](NC(=O)[C@H](CC(C)C)NC(=O)CC(C)C)C(C)C)C(=O)N[C@H](C(=O)O)C(C)C [Compound 8, (S)-2-[(2S,3S)-2-((3S,4S)-3-hydroxy-4-{(S)-3-methyl-2-[(S)-4-methyl-2-(3-methylbutyrylamino)pentanoylamino]butyrylamino}-5-phenylpentanoylamino)-3-methylpentanoylamino]-3-methylbutyric acid] (Isovaleryl-LV[Ahppa(3S,4S)]IV-OH) |  |  | 2.76 | 
6 | 7.51e-08 | CC[C@H](C)[C@H](NC(=O)C[C@H](O)[C@H](Cc1ccccc1)NC(=O)[C@H](NC(=O)[C@H](CC(C)C)NC(=O)CC(C)C)C(C)C)C(=O)N[C@H](C(=O)O)C(C)C [Compound 9, (S)-2-[(2S,3S)-2-((3S,4S)-3-hydroxy-4-{(R)-3-methyl-2-[(S)-4-methyl-2-(3-methylbutyrylamino)pentanoylamino]butyrylamino}-5-phenylpentanoylamino)-3-methylpentanoylamino]-3-methylbutyric acid] (Isovaleryl-L[dV][Ahppa(3S,4S)]IV-OH) |  |  | 31.2 | 
